Laboratory results from patent publication US20230381170A1, “METHOD FOR TREATING ALS/FTD THROUGH DEGRADATION OF RNA REPEAT EXPANSION” (University of Florida Research Foundation, Incorporated, priority 2020, published 2023).
Read-outs that look alike come from different tables or passages of the source.

Columns and labels:
[1] = test system: r(G4C2)8; test: Biolayer interferometry (BLI) binding
Experimental: Biolayer Interferometry (BLI). BLI studies were performed similarly as previously described (12) using an Octet RED96. Briefly, 5′-biotinylated nucleic acids were folded by heating at 95° C. for 4 min in 10 mM sodium phosphate buffer, pH 7, followed by slowly cooling to room temperature. Then, to the folded RNA were added the following components: 1.386 mL 1×DPBS (21-031-CV, Corning), 180 μL freshly prepared 1% (w/v) BSA, 36 μL 1% (v/v) Tween-20, and 18 μL DMSO (1% final concentration) in a final volume of 1.8 mL. The final concentration of RNA was 0.5 μM. Separately, serial dilutions of the compound of interest were prepared in the same buffer.
The resulting curves were analyzed and processed using Octet Data Analysis software version 9.1 by subtracting the response of the sensors recorded upon incubation with solutions containing compound and no RNA (parallel reference). The data were then fitted assuming reversible binding using the entire time interval for association and dissociation using either 1:1 or the 2:1 heterogeneous binding curve fitting model. The reported Kd,n, kon,n and koff,n values represent the average of two independent experiments.

[2] = test system: r(G4C2)exp-containing nuclear foci; test: RNA foci imaging (RNA-FISH) in patient-derived LCLs; type: cell-based, human; conditions: 100 nM
Experimental: Imaging RNA Foci in LCLs. RNA foci containing r(G4C2)^exp were imaged using RNA fluorescence in situ hybridization (FISH) as previously described (13). Briefly, ALS patient-derived LCLs were treated with compound or ASO as described in “Measuring poly(GP) Levels by Electrochemiluminescence”. The cells were harvested, pelleted, and washed with 1×PBS. LCLs were then fixed in 2% paraformaldehyde in 1×PBS for 15 min at room temperature and then washed three times with 1×PBS. The fixed cells were then centrifuged, washed twice with 1×PBS, and seeded into poly lysine coated, glass bottom 96-well plates (˜5×10^5 cells/well). To ensure the cells adhered to the plate, they were incubated at 37° C. for >2 h. The cells were then incubated with 70% ethanol overnight at 37° C. The next day, LCLs were washed with 1×PBS for 15 min at room temperature, and then with 1×PBS containing 0.1% (v/v) Triton X-100 for 5 min at room temperature. […] Quantification was performed in triplicate with ˜200 nuclei counted per sample. Average number of foci per nuclei was assessed for each sample and reported. Statistical analysis was measured using an unpaired t-test with Welch's correction.

[3] = test system: C9orf72 intron 1; test: C9orf72 intron 1 RT-qPCR in iPSC lines from healthy donors; type: cell-based, human
Experimental: iPSCs were treated for 4 days in Matrigel (356234, Corning) coated plates with mTeSR™1 feeder-free medium ([…] Technologies; Catalog #85850). Cells were treated in 6-well plates on day 1 and 3 with compounds diluted in 0.1% final DMSO.
(§1) Measuring Levels of C9orf72 and C9orf72 Variants by RT-qPCR. LCLs were seeded in 6-well plate (˜10^6 cells in 2 mL of growth medium) and incubated overnight at 37° C. Cells were then treated with various concentrations of compound for 24 h or with G4C2-ASO and Control-ASO (100 nM), delivered by transfection with Lipofectamine RNAiMax. RNA was extracted as described above and the expression of C9orf72 variants was determined by RT-qPCR. For iPSC and iPSC-derived motor neuron cell line, the cells were seeded into Matrigel-coated 6-well plate to ˜60% confluence before treated with 3 μM C9orf72-ASO or Control-ASO and various concentrations of compound for 1 to 2 weeks. For compound treatment well, medium change was performed with fresh compound every 3-4 days. RNA was extracted as described above and the expression of C9orf72 variants was determined by RT-qPCR.

[4] = test system: Poly(GP); test: Poly(GP) sandwich immunoassay in brain of +/+PWR500 mice; type: in vivo, mouse
Experimental: Therapeutic Efficacy in a c9ALS/FD mouse model. All animal studies were completed as approved by the Scripps Florida Institutional Animal Care and Use Committee. A total of 24 mice (12+/+PWR500 [7 Male and 5 Female] and 12 WT [6 Male and 6 Female]) mice, age- and gender-matched and ranging in age from 18-22 weeks old were used in therapeutic efficacy studies (Table 6). Mice were anesthetized by intraperitoneal (i.p.) injection of 10 mg/mL Ketamine:1 mg/mL Xylazine solution. Intracerebroventricular (ICV) stereotactic injections of 10 μL of 7 (33 nmol) were administered into the right ventricle using the following coordinates: 0.2 mm posterior and 1.0 mm lateral to the right from the bregma and 3 mm deep. Mice were treated with 7 or vehicle consisting of 1% DMSO in Saline. Three weeks post-treatment, mice were euthanized, and tissue was harvested for study.
Measuring Poly(GP) by MSD. Postmortem brain tissue was harvested and sliced sagittal at the midline. The left hemisphere was frozen for protein and RNA analysis. The left hemisphere of each brain was homogenized in 300 μL of ice-cold Tris-EDTA buffer with 2× protease inhibitors. […] Protein concentrations were measured by BCA assay (Pierce Biotechnology) and Poly(GP) was measured as described above. Statistical analysis was measured using an unpaired t-test with Welch's correction.

[5] = test system: C9orf72 intron 1; test: C9orf72 intron 1 RT-qPCR in LCLs from a healthy donor; type: cell-based, human
Experimental: as §1, with “For iPSC and iPSC-derived motor neuron cell line, the cells were seeded into Matrigel-coated 6-well plate to ˜60% confluence before treated with 3 μM C9orf72-ASO or Control-ASO and various concentrations of compound for 1 to 2 weeks.” left out

## Cc1c2ccncc2c(C)c2c1[nH]c1ccc(OCCOCCOCCNCCOCCOCCOc3ccc4[nH]c5c(C)c6ccncc6c(C)c5c4c3)cc12 [Compound 3]
[1]; BLI
  dissociation rate (koff) compared to 2: slower dissociation rate
[1]; BLI, read-out: Kd
  Kd: 4 ± 0.07 nM
[1]; BLI, read-out: Kd, 2
  Kd: 900 nM
[1]; Kd relative to 2
  bound more avidly to r(G4C2)8 than 2: ~13 fold
[2]
  reduction of number of r(G4C2)exp-containing nuclear foci: ~60%

## CCOC(=O)C1=C(Nc2ccccc2)S/C(=C\c2ccc(OCCOCCOCCOCCNC(=O)CCC(=O)N(CCOCCOCCOc3ccc4[nH]c5c(C)c6ccncc6c(C)c5c4c3)CCOCCOCCOc3ccc4[nH]c5c(C)c6ccncc6c(C)c5c4c3)c(O)c2)C1=O [Compound 7]
[3]
  C9orf72 intron 1 levels: no effect
[4]; 33 nmol ICV, three weeks, brain
  reduction of Poly(GP): 74±24%
[4]; +/+PWR500 or WT mice
  actin protein expression (control): no decrease
[5]
  C9orf72 intron 1 levels: did not affect
